According to PMC9287337 (Scientific Reports, 2022):

Experiments:
[1] = RealTime-Glo MT cell viability assay; format: cell-based, mouse; conditions: mouse, serum-starved C2C12 cells, 24 h, serum-starved C2C12, read-out: Cell viability, percent of luminescence in control untreated cells
Method: To first determine how these novel compounds effect the health of C2C12 cells and to establish the range of subtoxic concentrations for future studies, cell viability assays were carried out. Serum-starved C2C12 cells were exposed to increasing concentrations (0.01–1000 µM) of SY-LB-35 and SY-LB-57 for 24 h. Exposure to Triton X-100 (125 µM) is toxic to cells and was used as a negative control for cell viability. Following the 24-h exposure period, the MT Cell viability substrate was added to the cultures. Only viable cells can reduce the substrate and, thereby, generate a luminescent signal. Any decrease in luminescence was considered an indication of cell death or toxicity.
C2C12 cells (100 µL) were seeded in a 96-well plate at 5 × 10^5 cells/mL and incubated overnight in complete growth media to achieve 80% confluency followed by serum-starvation for 16–18 h.
Next, reagents from the RealTime-Glo™ MT Cell Viability Assay Kit (Promega, Madison, WI, USA) were diluted in SS medium and used according to manufacturer’s protocol. Cellular luminescence was measured using the FilterMax F5 Multi-mode Microplate Reader (Molecular Devices, San Jose, CA, USA). Data from three independent experiments with individual experiments carried out in triplicate was determined and reported as a percentage of control.

[2] = tested on: C2C12 cells; experiment: Live cell count (acridine orange/propidium iodide); format: cell-based, mouse; conditions: 24 h; for Average increase in number of cells compared to control: average over 0.01–10 µM
Method: For the concentrations tested, SY-LB-35 increased the number of cells by an average of approximately 40% (Fig. 4A) and SY-LB-57 enhanced cell numbers to an average increase of 70% compared to the control (Fig. 4B). […] Moreover, both novel compounds induce a substantial proliferative effect in C2C12 cells.
C2C12 mouse myoblast cells (ATCC®, Manassas, VA, USA) were maintained in complete growth media (DMEM/10% FBS/1X Penicillin/Streptomycin/Glutamine solution (PSG)) at 37 °C in 5% CO2. DMEM media (Dulbecco’s Modified Eagle’s Medium with high glucose and L-glutamine and without sodium pyruvate) was from Caisson Labs (Smithfield, UT, USA). FBS was from Atlanta Biologicals (Flowery Branch, GA, USA). To determine the cell concentration, 18 µL cell suspension was mixed with 2 µL Acridine orange/Propidium iodide stain (Logos Biosystems, Annandale, VA, USA). Next, the cell concentration and percent viability were determined from 10 µL stained cells using the Luna-FL™ Dual Fluorescence Cell Counter from Logos Biosystems. For cell counts following treatment with SY-LB-35 or SY-LB-57, C2C12 cells (500 µL) were seeded into 24-well plates at 1 × 10^5 cells/mL, grown to 80% confluency, serum-starved for 16–18 h using Serum-Starvation Medium (SS medium: DMEM/1X Penicillin/Streptomycin solution (PS)) and treated for 24 h with the novel compounds. The treated cells were then collected by trypsinization, pelleted at 2000 rpm for 3 min at RT, resuspended and counted.

[3] = tested on: p-Smad nuclear translocation; experiment: Immunofluorescent labeling of p-Smad nuclear translocation; format: cell-based, mouse; conditions: 1 µM, 30 min
Method: Serum-starved C2C12 cells grown on poly-D-lysine (PDL)-coated coverslips were stimulated with BMP2 (50 ng/mL), SY-LB-35 (1 µM) or SY-LB-57 (1 µM) for 30 min.
In a 24-well plate, 12 mm glass coverslips were coated for 1 h at RT with 500 µL PDL (0.1 mg/mL/ 0.1 M Boric acid), washed 4 times with cell culture-grade distilled water and sterilized under UV light for 30 min. C2C12 cells (500 µL) were seeded onto the PDL-coated coverslips at a density of 1 × 10^5 cells/mL, grown to 80% confluency and starved in SS medium for 2 h. Next, the cells were treated with 50 ng/mL BMP2 or 1 µM SY-LB-35 or SY-LB-57 for 15 min (for p-Akt labelling) or 30 min (for p-Smad labelling). Cells were then fixed using ice-cold 4% PFA/PBS for 10 min at RT. Next, the coverslips were washed with ice-cold 1X PBS, transferred to a humidified chamber and incubated (100 µL/coverslip) in Permeabilization solution (0.1% Triton X-100/PBS) for 15 min, then Blocking Buffer (10% heat inactivated goat serum/ 0.3% Triton X-100/PBS) for 30 min. Anti-p-Smad antibodies in Antibody Dilution Buffer (1% BSA/0.1% Tween 20/PBS) were added for 1 h and the coverslips were washed 4 times with 1X PBS. The Cy3-conjugated goat anti-rabbit IgG secondary antibodies (Jackson Immuno Research Labs, West Grove, PA, USA) in Antibody Dilution Buffer were added for 1 h followed by 4 washes with 1X PBS and once with dH2O. […]

[4] = tested on: p-Akt (Akt phosphorylation); experiment: Western blot of p-Akt normalized to total Akt; format: cell-based; conditions: Mus musculus, 0.25 h, 15 min, read-out: p-Akt level, percent of control
Method: (§1) To ascertain whether these novel indolyl-benzimidazole compounds can also activate non-canonical BMP-related pathways, stimulation of the PI3K/Akt pathway was assessed by first monitoring changes in the level of p-Akt in response to SY-LB-35 and SY-LB-57.
(§2) C2C12 cells (3 mL) were seeded into 35 mm dishes at 7.5 × 10^4 cells/mL in complete growth medium, incubated to reach 80% confluence and serum-starved for 16–18 h. […] Thereafter, the cultures were washed with ice-cold 1X TBS for 2 min. Lysis Buffer (Cell Signaling Technology, Danvers, MA, USA) supplemented with 1 mM PMSF (phenylmethylsulphonyl fluoride) was added to the cultures and whole cell lysates were prepared.
Laemmli sample buffer (4X) was added to the whole cell lysates (20 µg) to a final concentration of 1X and heated at 100 °C for 5 min. The samples were immediately cooled on ice for 5 min and centrifuged at 9500 rpm for 2 min at RT. The samples and the Precision Plus Protein Standard (5 µL; Bio-Rad, Hercules, CA, USA) were loaded on 12% SDS polyacrylamide gels. Protein was separated using the Bio-Rad Mini Protean II Gel Electrophoresis System at 135 V. Meanwhile, 0.2 µm nitrocellulose membranes were pre-incubated in cold 1X Transfer Buffer (10 mM Tris/2.5 mM glycine/20% methanol) for at least 30 min. Next, the separated proteins were transferred at 100 V onto the pre-equilibrated nitrocellulose membranes for 1 h in Transfer Buffer, followed by blocking in 5% BSA/0.1% Tween 20/1X TBS for 30 min. The membranes were incubated overnight at 4 °C with the desired primary rabbit monoclonal antibody (p-Smad1/5(S463/465)/9(S465/467), Smad1 (D5907) XP®, p-Akt (Ser473) (D9E) XP®, or Akt (pan) (C67E7), p-SAPK/JNK (Thr183/Tyr185), SAPK/JNK, β-actin (Cell Signaling Technologies, Danvers, MA, USA)) or rabbit polyclonal antibody (phospho-PI3 Kinase p85 (Tyr458)/p55 (Tyr199) antibody (Cell Signaling Technologies, Danvers, MA, USA), p-p38 MAPK, p38 MAPK, p-ERK1, ERK1/2) (Abclonal, Woburn, MA, USA)) in Antibody Dilution Buffer (1% BSA/0.1% Tween 20/1X TBS) and then washed with 1X TBST (0.1% Tween 20/1X TBS) three times for 15 min. HRP-conjugated Goat Anti-Rabbit IgG secondary antibody (Santa Cruz Biotechnology, Inc., Dallas, TX, USA) in Antibody Dilution Buffer was added to the membranes for 1 h at RT followed by three 15-min washes with 1X TBST. Finally, the blots were developed using SuperSignal ™ West Femto HRP Substrate solutions (Thermo Scientific, Rockford, IL, USA) and analysed using the Omega Lum™ G Imaging System (San Francisco, CA, USA). Quantification of chemiluminescent signals was carried out using ImageJ (Image Processing and Analysis in Java 1.8.0_112).

[5] = tested on: p-Akt cytoplasmic localization; experiment: Immunofluorescent labeling of p-Akt; format: cell-based, mouse; conditions: 1 µM, 15 min
Method: as §1

[6] = tested on: p-ERK; experiment: Western blot of p-ERK; format: cell-based, mouse; conditions: 0.01–10 µM, 15 min
Method: Whole cell lysates were prepared from the treated cultures for Western blot analysis.
as §2
Laemmli sample buffer (4X) was added to the whole cell lysates (20 µg) to a final concentration of 1X and heated at 100 °C for 5 min. The samples were immediately cooled on ice for 5 min and centrifuged at 9500 rpm for 2 min at RT. The samples and the Precision Plus Protein Standard (5 µL; Bio-Rad, Hercules, CA, USA) were loaded on 12% SDS polyacrylamide gels. […] Finally, the blots were developed using SuperSignal ™ West Femto HRP Substrate solutions (Thermo Scientific, Rockford, IL, USA) and analysed using the Omega Lum™ G Imaging System (San Francisco, CA, USA). Quantification of chemiluminescent signals was carried out using ImageJ (Image Processing and Analysis in Java 1.8.0_112).

COc1ccc2[nH]c(-c3nc4ccccc4[nH]3)cc2c1 [SY-LB-57]
viability at 24 h, 0.01 µM [1]: 390%
viability at 24 h, 0.1 µM [1]: 394%
viability at 24 h, 1 µM [1]: 301%
viability at 24 h, 10 µM [1]: 251%
viability at 24 h, 100 µM [1]: 151%
viability at 24 h, 1 mM [1]: 20%
Cell number ([2]; 0.01 µM): 7.4 × 10^5 cells
Cell number ([2]; 0.1 µM): 6.5 × 10^5 cells
Cell number ([2]; 1 µM): 7.2 × 10^5 cells
Cell number ([2]; 10 µM): 6.0 × 10^5 cells
Average increase in number of cells compared to control [2]: 70%
p-Smad nuclear translocation [3]: induced the translocation of p-Smad into the nucleus
activity at 0.01 µM [4]: 827%
activity at 10 µM [4]: 995%
p-Akt immunofluorescent labeling [5]: robust, punctate, cytoplasmic p-Akt labeling
p-ERK level [6]: stimulated increases

Oc1ccc2[nH]c(-c3nc4ccccc4[nH]3)cc2c1 [SY-LB-35]
viability at 24 h, 0.01 µM [1]: 241%
viability at 24 h, 0.1 µM [1]: 244%
viability at 24 h, 1 µM [1]: 218%
viability at 24 h, 10 µM [1]: 137%
viability at 24 h, 100 µM [1]: 69%
viability at 24 h, 1 mM [1]: 13%
Cell number ([2]; 0.01 µM): 6.8 × 10^5 cells
Cell number ([2]; 0.1 µM): 6.6 × 10^5 cells
Cell number ([2]; 1 µM): 6.8 × 10^5 cells
Cell number ([2]; 10 µM): 6.4 × 10^5 cells
Average increase in number of cells compared to control [2]: approximately 40%
p-Smad nuclear translocation [3]: induced the translocation of p-Smad into the nucleus
activity at 0.01 µM [4]: 945%
activity at 0.1 µM ([4]; 0.1 µM): 826%
activity at 1 µM ([4]; 1 µM): 887%
activity at 10 µM [4]: 766%
p-Akt immunofluorescent labeling [5]: robust, punctate, cytoplasmic p-Akt labeling
p-ERK level [6]: stimulated increases
